Read-outs that look alike come from different tables or passages of the source.
Legend:
[1] = tested on: glioma cells expressing HSV-TK (S6) mixed with RFP cells; assay: Gap junction mediated cell death (bystander effect), MTT ratio A1:RFP/S6:RFP; type: cell-based, Rat; details: added to ganciclovir and 4-PB treatment
Description: Mixtures of cell dones were treated with drugs as indicated. After 96 h (grey bar), 120 h (white bar) and 168 h (black bar) MTT tests from three samples were performed. The ratios of the MTT tests from TK negative and TK positve mixtures (A1:RFP/S6:RFP) are shown.
Glioma cells with stable expression of green fluorescent protein (EGFP) and the herpes simplex virus thymidine kinase expressing gene HSV-TK in sense (S6) or in antisense (A1) were mixed with cells stably expressing the red fluorescent protein (RFP) (ratio 3:7 S6:RFP or A1:RFP). Ganciclovir, 4-phenylbutyrate and AGA were added 3 hrs after seeding the cells, except for AGA, which was added directly at seeding of cells. After 48 hours, cells were split and after 96, 120 and 168 hrs one each of the cell culture quadruplicates was used for MTT-test while one sample was employed for FACS analysis. After 144 h cells from the third of the quadruplicate were split again and the last quadruplicate sample was analyzed the following day (168 h).
Proliferation of cultured glioma cells was assessed by 3-(4,5-dimethylthiazol-2-yl)-2,5-diphenyltetrazolium bromide (MTT, Sigma) assay. […] The absorbance at 570 nm (with reference at 650 nm) was measured using a microtiter plate spectrophotometer (Anthos HT III). The results were expressed as percentage of viable cells compared to the control sample of untreated cells (100%).

[2] = tested on: gap junction communication between S6 and RFP cells; assay: Fluorescent dye transfer between glioma cells (S6 to RFP); type: cell-based, Rat; details: unlabeled recipient cells
Description: S6 and RFP cells were plated each in two separate dishes with one dish of each cell type treated either with AGA or DMSO. S6 cells of both dishes were incubated with Calcein-AM and Dil. Cells were trypsinized and 85% RFP cells were mixed with 15% S6 cells and mixtures were co-cultured in two dishes where one contained cells pretreated with AGA (right panel). After 2.5 hours cells were incubated with Hoechst nuclear stain and Calcein-AM dye transfer from S6 cells to RFP cells was monitored.
Glioblastoma cells were cultured on 35 mm petri dishes and in vitro labelled with 5 μM calcein-AM (acetomethylic ester) and 10 μM Dil (Molecular Probes) diluted in supplemented serum free medium DMEM/F12 and incubated for 30 min at 37° C. The cells were washed once with the same medium, trypsinized and suspended in the culture medium induding 10% FBS. The cells were pelleted by centrifugation at 1600 rpm for 1 minute and resuspended in fresh culture medium. The procedure was repeated twice. Following the second resuspension, the labelled cells were plated on top of unlabelled cells of the same origin. These cells were either pretreated with 4-PB at a concentration of 5 mM, or non-treated serving as a control. The labeled cells were then allowed to settle for 1 hour, followed by analyses using epifluorescence detection microscopy every 30 minutes for up to 6 hours. […]

U343MG cells = assay: XTT cytotoxicity assay of nucleoside analogues with or without phenylbutyrate pre-incubation; type: cell-based, human; details: for IC50: 120 hours drug exposure, combinations: 24 h pre-incubation with 3.16 mM phenylbutyrate
Description: (§1) Cells were seeded at a density of 1.000-2.000 cells/well in 96-well plates. […] Plated incubated for 24 hours (37° C., 5% CO2) where after media was discarded and replaced by media conditioned with various concentrations of nucleoside analogs (e.g. AZT), 200 μl/well. After 120 hours of drug exposure the experiments were terminated. Cell proliferation/cytotoxicity was assessed by adding the colour generating substrates of the Cell Proliferation kit II (XTT) from Roche (Cat. No. 1465015) and measuring absorbance at 450 nm and 690 nm with a Thermo Labsystems Multiscan Ascent reader. The data was corrected for background media-only absorbance where after the 50% growth inhibitory concentration—IC50 (the dose that inhibits cell growth by 50%) was calculated for each treatment. Cells were seeded at a density of 1.000-2.000 cells/well in PLL coated 96-well plates. […] Plated incubated for 24 hours (37° C., 5% CO2) where after media was discarded and replaced by media conditioned with various concentrations of nucleoside analogs; AZT (Sigma # A2169), AraC (Sigma # C6645), Cladribine (CdA) (Sigma #C4438), Gancidovir (GCV) (Sigma # G2536) and Gemcitabine (Orifarm), 200 μl/well. After 120 hours of drug exposure the experiments were terminated. Cell proliferation/cytotoxicity was assessed by adding the colour generating substrates of the Cell Proliferation kit II (XTT) from Roche (Cat. No. 1465015) and measuring absorbance at 450 nm and 690 nm with a Thermo Labsystems Multiscan Ascent reader. he data was corrected for background media-only absorbance where after the 50% growth inhibitory concentration—IC50 (the dose that inhibits cell growth by 50%) was calculated for ach treatment.

CL2:6 cells = assay: as above; type: cell-based; details: 120 hours drug exposure; for IC50: combinations: 24 h pre-incubation with 3.16 mM phenylbutyrate; for sensitivity improvement/increase by phenylbutyrate pre-incubation: CL2:6 pre-incubated 24 h with phenylbutyrate
Description: as §1

U87MG cells = assay: XTT cytotoxicity assay of phenylbutyrate and of nucleoside analogues with or without phenylbutyrate pre-incubation; type: cell-based, human; details: 120 hours drug exposure; for IC50: combinations: 24 h pre-incubation with 3.16 mM phenylbutyrate, read-out: IC50 U87MG; for sensitivity increase by phenylbutyrate pre-incubation: U87MG pre-incubated 24 h with phenylbutyrate
Description: Briefly, cells were harvested by trypsinzation, stained by Tryphan Blue for cell viability counting, seeded in triplicate in 96-well plates (1.000-2.000 cells/well) where after media conditioned with a fixed concentration of phenyl butyrate (3.16 mM) were added to the plates followed by incubation for 24 hours at 37° C. and 5% CO2. Cell proliferation/cytotoxicity was assessed by adding the colour generating substrates of the Cell Proliferation kit II (XTT) from Roche (Cat. No. 1465015) and measuring absorbance at 450 nm and 690 nm with a Thermo Labsystems Multiscan Ascent reader.
Cells were seeded at a density of 1.000-2.000 cells/well in 96-well plates. Cells were pre-incubated with 4-phenyl butyrate for 24 hours prior to drug exposure by adding media conditioned with phenyl butyrate at a fixed concentration (3.16 mM). Plated incubated for 24 hours (37° C., 5% CO2) where after media was discarded and replaced by media conditioned with various concentrations of nucleoside analogs (e.g. AZT), 200 μl/well. After 120 hours of drug exposure the experiments were terminated. Cell proliferation/cytotoxicity was assessed by adding the colour generating substrates of the Cell Proliferation kit II (XTT) from Roche (Cat. No. 1465015) and measuring absorbance at 450 nm and 690 nm with a Thermo Labsystems Multiscan Ascent reader.
The data was corrected for background media-only absorbance where after the 50% growth inhibitory concentration—IC50 (the dose that inhibits cell growth by 50%) was calculated for each treatment.
Briefly, cells were harvested by trypsinzation, stained by Tryphan Blue (Cambrex) for cell viability counting, seeded in triplicate in poly-L-lysine (PLL) (Sigma # P6282) coated 96-well plates (1.000-2.000 cells/well) where after media conditioned with a fixed concentration of phenyl butyrate (3.16 mM) was added to the plates followed by incubation for 24 hours at 37° C. and 5% CO2. Cell proliferation/cytotoxicity was assessed by adding the colour generating substrates of the
Cells were seeded at a density of 1.000-2.000 cells/well in PLL coated 96-well plates. Cells were pre-incubated with 4-phenyl butyrate for 24 hours prior to drug exposure by adding media conditioned with phenyl butyrate at a fixed concentration (3.16 mM). Plated incubated for 24 hours (37° C., 5% CO2) where after media was discarded and replaced by media conditioned with various concentrations of nucleoside analogs; AZT (Sigma # A2169), AraC (Sigma # C6645), Cladribine (CdA) (Sigma #C4438), Gancidovir (GCV) (Sigma # G2536) and Gemcitabine (Orifarm), 200 μl/well. After 120 hours of drug exposure the experiments were terminated. Cell proliferation/cytotoxicity was assessed by adding the colour generating substrates of the Cell Proliferation kit II (XTT) from Roche (Cat. No. 1465015) and measuring absorbance at 450 nm and 690 nm with a Thermo Labsystems Multiscan Ascent reader. he data was corrected for background media-only absorbance where after the 50% growth inhibitory concentration—IC50 (the dose that inhibits cell growth by 50%) was calculated for ach treatment.

U87MG wt cells = assay: Cell killing effect of AZT, XTT assay, non-transduced cells; type: cell-based, human; details: 120 hours
Description: Exponentially growing U87 wt and tomato kinase expressing cells were plated at a density of 2.000 cells/well in poly-L-lysine coated 96-well plates in 100 μl conditioned medium and incubated 37° C. in a humidified incubator with a gas phase of 5% CO2. After 24 hours, medium was replaced with medium containing varying concentrations of AZT. Hereafter, cells were exposed to drug conditioned media for 120 constitutive hours. The chemo resistance of cultured cells was monitored by the surviving cell fraction as a function of the drug concentration. Viability of cells was determined via the colorimetric XTT assay (XTT kit II—Roche, cat no. 1465015). Briefly, cell media was carefully removed and 100 μl fresh media and 50 μl XTT mix was added to each well. The absorbance at 450 and 690 nm was determined using an ELISA plate reader (Ascent, ThermoLab). The IC50 value (50% inhibition concentration) of the investigated compound was calculated as the mean value of each experiment using SigmaPlot® (Dyrberg Trading, DK).

[3] = tested on: U87MG cells expressing tomato thymidine kinase; assay: Cell killing effect of AZT, XTT assay, tomato thymidine kinase transduced cells; type: cell-based, human; details: for IC50: U87MG tomato TK
[4] = tested on: hGBM-1, hGBM-5 and hGBM-14 glioblastoma cultures; assay: MTT assay of cell viability and proliferation in primary glioblastoma cultures; type: cell-based, human; details: hGBM-1, hGBM-5, hGBM-14; 24 hours (FIG. 2)
Description: Proliferation of cultured glioma cells was assessed by 3-(4,5-dimethylthiazol-2-yl)-2,5-diphenyltetrazolium bromide (MTT, Sigma) assay. MTT tetrazolium salt was dissolved in serum-free culture medium (0.5 mg/ml), added to the cells (150 μl/well) and incubated for 30 min at 37° C. Formazan dye, formed by viable cells, was solubilized in 300 μl of isopropanol. Aliquots (100 μl) of the solutions were transferred to 96-well microplates. The absorbance at 570 nm (with reference at 650 nm) was measured using a microtiter plate spectrophotometer (Anthos HT III). The results were expressed as percentage of viablecells compared to the control sample of untreated cells (100%).

[5] = tested on: cell line transfected with Dm dNK variant; details: cited from earlier work

## CC1(C)[C@@H](O)CC[C@]2(C)[C@H]3C(=O)C=C4[C@H]5C[C@@](C)(C(=O)O)CC[C@]5(C)CC[C@@]4(C)[C@]3(C)CC[C@@H]12 [AGA, 18α glycyrrhethinic acid]
[1]
  bystander killing effect upon addition of gap junction inhibitor: reduced
[2]
  calcein transfer from Dil-positive donor cells: inhibited

## Cc1cn([C@H]2C[C@H](N=[N+]=[N-])[C@@H](CO)O2)c(=O)[nH]c1=O [AZT, 3′-azido-3′-thymidine]
U343MG cells
  IC50: 56 µM
U343MG cells; U343MG pre-incubated 24 h with phenylbutyrate
  sensitivity improvement by phenylbutyrate pre-incubation: 4.2 times
CL2:6 cells
  IC50: 573 µM
  sensitivity improvement/increase by phenylbutyrate pre-incubation: 1.7 times
U87MG cells
  IC50: 6000 µM
U87MG wt cells
  IC50: 7430 µM
[3]
  sensitivity increase of tomato TK expressing U87 cells compared to wt U87MG: 500 fold
[3]; 120 hours, read-out: IC50 for tomato TK transduced cells
  IC50: 14.8 µM
[3]; read-out: IC50 measured in FIG. 15B, approximate
  IC50: ~15 µM

## Nc1ccn([C@@H]2O[C@H](CO)[C@@H](O)[C@@H]2O)c(=O)n1 [AraC, cytidine-arabinoside]
U87MG cells
  IC50: 4340 µM
  sensitivity increase by phenylbutyrate pre-incubation: 3.5 times

## Nc1nc(Cl)nc2c1ncn2[C@H]1C[C@H](O)[C@@H](CO)O1 [CdA, 2-chloro-2′-deoxyadenosine]
U87MG cells; Homo sapiens, U-87 MG
  IC50: 5.74 µM
U87MG cells
  sensitivity increase by phenylbutyrate pre-incubation: 2.3 times

## Nc1nc(O)c2ncn(COC(CO)CO)c2n1 [GCV, 9-[2-hydroxy-1-(hydroxymethyl)ethoxyl-methyl]-guanosine]
U343MG cells; Homo sapiens, U-343MG
  IC50: 104 µM
CL2:6 cells
  IC50: 3360 µM
  sensitivity improvement/increase by phenylbutyrate pre-incubation: 1.4 times

## Nc1ccn([C@@H]2O[C@H](CO)[C@@H](O)C2(F)F)c(=O)n1 [Gemcitabine, 2′,2′-difluorodeoxycytidine]
U87MG cells; Homo sapiens, U-87 MG
  IC50: 0.248 µM
U87MG cells
  sensitivity increase by phenylbutyrate pre-incubation: 7.8 times

## O=C1CCc2c(ccc3ccccc23)O1 [Splitomicin, splitomicin]
[4]
  antiproliferative potency compared with 4-PB (MTT): less potent

## CC(/C=C/C(=O)NO)=C\[C@@H](C)C(=O)c1ccc(N(C)C)cc1 [Trichostatin A]
[4]
  antiproliferative potency compared with 4-PB (MTT): less potent

## CCCC(=O)[O-].[Na+] [sodium butyrate]
[4]
  antiproliferative potency compared with 4-PB (MTT): less potent

## CCCC(CCC)C(=O)O [valproic acid]
[4]
  antiproliferative potency compared with 4-PB (MTT): less potent

B1: B5: mutant form of the Drosophila melanogaster Dm dNK deoxyribonucleoside kinase (SEQ ID NO 5) (protein)
chain: MAEAASCARKGTKYAEGTQPFTVLIEGNIGSGKTTYLNHFEKYKNDICLLTEPVEKWRNVNGVNLLELMYKDPKKWAMPFQSYATLTMLQSHTAPTNKKLKIMERSIFSARYCFVENMRRNGSLEQGMYNTLEEWYKFIEESIHVQADLIIYLRTSPEVAYERIRQRARSEESCVPLKYLQELHELHEDWLIHQRRPQSCKVLVLDADLDLENIGTEYQRSESSIFDAISSNQQPSPVPVSPSKRQRVAR
modifications: Drosophila melanogaster
[5]
  degree of activation for gemcitabine relative to wild type Dm dNK: approximately 50 times
